The text below walks through data of ChEMBL document CHEMBL4052722, “Virtual screening, synthesis and biological evaluation of DNA intercalating antiviral agents” (Bioorg Med Chem Lett, 2017).

Experiment [1] concerns Vaccinia virus. Briefly: Antiviral activity against Vaccinia virus LIVP harboring GFP infected in African green monkey CV1 cells assessed as GFP expression at 10 uM preincubated for 4 hrs with cells followed by viral infection measured after 24 hrs by flow cytometric analysis relative to control. In kind it is functional, Orthopoxvirus vaccinia. (In flow cytometry, cells or beads pass a laser one at a time.)

Experiment [2] deals with Vaccinia virus. Briefly: Antiviral activity against Vaccinia virus LIVP harboring GFP infected in African green monkey CV1 cells assessed as virus titer at 30 uM preincubated with cells for 4 hrs followed by viral infection measured after 48 hrs by gentian violet staining-based microscopic analysis (reference value: 3.3 +/- 0.1 log10PFU/ml). In kind it is functional, Orthopoxvirus vaccinia.

The test system of experiment [3] is Vaccinia virus. The experiment in a line: Antiviral activity against Vaccinia virus LIVP harboring GFP infected in African green monkey CV1 cells assessed as inhibition of GFP expression at 30 to 50 uM preincubated for 4 hrs with cells followed by viral infection measured after 24 hrs by flow cytometric analysis relative to control. In kind it is functional, Orthopoxvirus vaccinia.

Experiment [4] relates to Vaccinia virus. Briefly: Antiviral activity against Vaccinia virus LIVP harboring GFP infected in African green monkey CV1 cells assessed as virus titer at 10 uM preincubated with cells for 4 hrs followed by viral infection measured after 48 hrs by gentian violet staining-based microscopic analysis (reference value: 3.3 +/- 0.1 log10PFU/ml). In kind it is functional, Orthopoxvirus vaccinia.

Experiment [5] has as its system Vaccinia virus. Briefly: Antiviral activity against Vaccinia virus LIVP harboring GFP infected in African green monkey CV1 cells assessed as virus titer preincubated with cells for 4 hrs followed by viral infection measured after 48 hrs by gentian violet staining-based microscopic analysis. In kind it is functional. The settings on record: Orthopoxvirus vaccinia, CV-1.

Experiment [6] deals with Vaccinia virus. Briefly: Antiviral activity against Vaccinia virus LIVP harboring GFP infected in African green monkey CV1 cells assessed as virus titer at 1 uM preincubated with cells for 4 hrs followed by viral infection measured after 48 hrs by gentian violet staining-based microscopic analysis (reference value: 3.3 +/- 0.1 log10PFU/ml). In kind it is functional, Orthopoxvirus vaccinia.

Experiment [7] concerns Vaccinia virus. Briefly: Antiviral activity against Vaccinia virus LIVP harboring GFP infected in African green monkey CV1 cells assessed as virus titer at 5 uM preincubated with cells for 4 hrs followed by viral infection measured after 48 hrs by gentian violet staining-based microscopic analysis (reference value: 3.3 +/- 0.1 log10PFU/ml). In kind it is functional, Orthopoxvirus vaccinia.

The subject of experiment [8] is Vaccinia virus. Briefly: Antiviral activity against Vaccinia virus LIVP harboring GFP infected in African green monkey CV1 cells assessed as virus titer at 50 uM preincubated with cells for 4 hrs followed by viral infection measured after 48 hrs by gentian violet staining-based microscopic analysis (reference value: 3.3 +/- 0.1 log10PFU/ml). In kind it is functional, Orthopoxvirus vaccinia.

What is called pIC50 is −log10 of the IC50, conventionally taken in molar units.

Each structure is given as a SMILES string. pIC50: −log10 of the molar value.

As to `CN1CCN(CCn2c3ccccc3c3nc4ccccc4nc32)CC1`, the Activity in experiment [1] stood at 91%.

For the compound `CN(C)CCn1c2ccccc2c2nc3ccccc3nc21`, the Activity in experiment [1] was 67%. For the compound `CCCCN(C)CCn1c2ccccc2c2nc3ccccc3nc21`, in experiment [1], the Activity is given as 77%.

Turning to `O=C(CN1CCCCCC1)NN1C(=O)c2cccc3cccc(c23)C1=O`, the Activity in experiment [1] turned out to be 111%. Regarding `CCN(CC)CCNC(=O)Cn1c2ccccc2c2nc3ccccc3nc21`, the Activity in experiment [1] is 67%.

With `O=C(Cn1c2ccccc2c2nc3ccccc3nc21)NCCN1CCOCC1`, in experiment [1], the Activity was 125%. Regarding `CN(C)CCCNC(=O)CCCn1c2ccccc2c2nc3ccccc3nc21`, the Activity in experiment [1] amounted to 111%.

As for `Cc1ccc2c(c1)c1nc3ccccc3nc1n2CCN1CCN(C)CC1`, the Activity in experiment [1] is 111%. With `COC(=O)CN(C)CCCN1C(=O)c2cccc3cccc(c23)C1=O`, the Activity in experiment [1] is listed as 83%. For the compound `CCCCN(CCO)CCN1C(=O)c2cccc3cccc(c23)C1=O`, the Activity in experiment [1] was found to be 83%.

Take `CN1CCN(CCN2C(=O)c3cccc4cccc(c34)C2=O)CC1`: the Activity in experiment [1] is on record as 77%. Consider `O=C(CCCn1c2ccccc2c2nc3ccccc3nc21)NCCN1CCCCC1`, for which, in experiment [1], the Activity was 100%. The same measure, in the same setting: next, `CN1CCN(CC(=O)NN2C(=O)c3cccc4cccc(c34)C2=O)CC1`: 48%. On to `CN(C)CCCNCCn1c2ccccc2c2nc3ccccc3nc21`, for which the Activity in experiment [1] was 45%; in experiment [2], 2.7 log10PFU; in experiment [4] it was 3.3 log10PFU; in experiment [6], 3.5 log10PFU. For the same compound, the “fold change (FC)” value in experiment [3] is 8 - 10. The negative-log IC50 (pIC50) in experiment [5] was 4.66. Take `CCN(CC)CCn1c2ccc(OC)cc2c2nc3ccccc3nc21`: the Activity in experiment [1] was 91%. On to `c1ccc2nc3c(nc2c1)c1ccccc1n3CCNCCCN1CCOCC1`, for which the Activity in experiment [1] came out at 48%; in experiment [2], 2.6 log10PFU; in experiment [4], 3.3 log10PFU; in experiment [6] it was 3.6 log10PFU. The “fold change (FC)” value in experiment [3] is 8 - 10. In addition, the pIC50 in experiment [5] is 4.72. On to `CN(C)CCCOC(=O)Cn1c2ccccc2c2nc3ccccc3nc21`, for which the Activity in experiment [1] was found to be 83%. `O=C(CN1CCCC1)NN1C(=O)c2cccc3cccc(c23)C1=O`: the Activity in experiment [1] is 111%. For the compound `CC(O)N(C)CCn1c2ccccc2c2nc3ccccc3nc21` (centres undefined), the Activity in experiment [1] is on record as 91%. On the same count and under the same terms, next, `O=C(Cn1c2ccccc2c2nc3ccccc3nc21)OCCN1CCCCC1`: 71%; `CN(C)CCOC(=O)CCCn1c2ccccc2c2nc3ccccc3nc21`: 125%. Take `CCN(CC)CCCNC(=O)Cn1c2ccccc2c2nc3ccccc3nc21`: in experiment [1], the Activity amounted to 83%. For the compound `CCN(CC)CCNCCn1c2ccccc2c2nc3ccccc3nc21`, the Activity in experiment [1] is given as 91%. For `CCN(CC)CCCNCCn1c2ccccc2c2nc3ccccc3nc21`, the Activity in experiment [1] came out at 28%; in experiment [7] it was 2.8 log10PFU; in experiment [4], 2.6 log10PFU; in experiment [6], 2.8 log10PFU. In experiment [5], the pIC50 was greater than 6.00. As for `O=C(CCCn1c2ccccc2c2nc3ccccc3nc21)NCCCN1CCOCC1`, in experiment [1], the Activity came out at 111%. For the compound `CN(CCO)CCN1C(=O)c2cccc3cccc(c23)C1=O`, in experiment [1], the Activity was 83%. For `CCN(CCO)CCN1C(=O)c2cccc3cccc(c23)C1=O`, in experiment [1], the Activity is reported as 71%. As for `CN(C)CCNC(=O)Cn1c2ccccc2c2nc3ccccc3nc21`, in experiment [1], the Activity was determined as 59%. As for `CN(C)CCNC(=O)CCCn1c2ccccc2c2nc3ccccc3nc21`, the Activity in experiment [1] came out at 100%.

On to `CC1CCN(CC(=O)NN2C(=O)c3cccc4cccc(c34)C2=O)CC1`, for which the Activity in experiment [1] came out at 125%. In the case of `COc1ccc2c(c1)c1nc3ccccc3nc1n2CCN1CCCCC1`, the Activity in experiment [8] stood at 2.4 log10PFU; in experiment [1], 23%; in experiment [4], 2.8 log10PFU; in experiment [6] it was 3.1 log10PFU. In experiment [3], the “fold change (FC)” value is listed as 8 - 10. The pIC50 in experiment [5] was 5.30.

As for `CN(C)CCCNC(=O)Cn1c2ccccc2c2nc3ccccc3nc21`, the Activity in experiment [8] is given as 2.5 log10PFU; in experiment [1] it was 42%; in experiment [4], 2.8 log10PFU; in experiment [6], 3.4 log10PFU. Besides, the “fold change (FC)” value in experiment [3] is recorded as 8 - 10. The pIC50 in experiment [5] is 5.00. For the compound `CN(C)CCNCCn1c2ccccc2c2nc3ccccc3nc21`, in experiment [1], the Activity is 77%. Consider `CCN(CC)CCNC(=O)CCCn1c2ccccc2c2nc3ccccc3nc21`, for which the Activity in experiment [1] amounted to 91%. Consider `CCN(CC)CCCC(C)N1C(=O)c2cccc3cccc(c23)C1=O` (centres undefined), for which the Activity in experiment [1] was determined as 111%. For `O=C(CCCn1c2ccccc2c2nc3ccccc3nc21)OCCN1CCOCC1`, the Activity in experiment [1] was 111%. For the compound `O=C(Cn1c2ccccc2c2nc3ccccc3nc21)NCCCN1CCOCC1`, in experiment [1], the Activity worked out at 83%. Turning to `c1ccc2nc3c(nc2c1)c1ccccc1n3CCNCCN1CCCCC1`, in experiment [1], the Activity turned out to be 71%.

For the compound `O=C(CCCn1c2ccccc2c2nc3ccccc3nc21)NCCN1CCOCC1`, in experiment [1], the Activity was found to be 111%. In the case of `COC(=O)CN1CCN(CCN2C(=O)c3cccc4cccc(c34)C2=O)CC1`, the Activity in experiment [1] is on record as 77%.
